In US9796671B2, “Aurora kinase inhibitors” (REGENTS OF THE UNIVERSITY OF MINNESOTA, priority 2012, dated 2017):

Assays:
[1] = system: HCT116 cells; assay: Anchorage-independent growth (soft agar colony formation); assay type: cell-based; details: 0.5 μM
Experimental: FIGS. 3A and 3B. Compounds 1-8 suppress the anchorage-independent growth of HCT116 cells. The asterisk indicates a significant (* p<0.05, ** p<0.01) decrease in colony formation in cells treated with each compound compared with the DMSO treated control group. Two concentrations of each compound, 0.5 μM and 5 μM were tested. […] Compounds 2 and 4 had no effect.
Tumor cells are suspended in basal medium Eagle (BME) medium and added to 0.6% agar, with different concentrations of Compound 1 in a base layer and a top layer of 0.3% agar. The cultures are maintained at 37° C. in a 5% CO2 incubator for 1 to 2 weeks and then colonies are counted under a microscope using the Image-Pro Plus software (v.4) program (Media Cybernetics, Silver Spring, Md.).

[2] = system: A549 lung cancer cells; assay: Cytotoxicity (MTS assay); assay type: cell-based, human
Experimental: To estimate the cytotoxicity of Compound 1, cells are seeded (8×10^3 cells per well) in 96-well plates and cultured overnight. Cells are fed with fresh medium and treated with different doses of Compound 1. After culturing for various times, the cytotoxicity of Compound 1 is measured using an MTS assay kit (Promega, Madison, Wis.) according to the manufacturer's instructions.
The toxicity of Compound 1 on both MRC-5 normal lung cells and A549 lung cancer cells was then examined.

[3] = target: T1, AMPK-alpha1 (Homo sapiens, UniProt Q13131); assay: Kinase profile assay (Millipore); assay type: biochemical; details: read-out: kinase activity compared with the control
T1 construct: purchased Millipore
Experimental: (§1) A kinase profile assay was performed by Millipore, to examine other potential targets of Compound 1. Only Akt2 activity was suppressed more than 50% after 5 μM compound 1 treatment, compared with the control (Table 2). In addition, the kinase activity of Aurora A was decreased less than 25% at 5 μM Compound 1.

[4] = target: T2, CDK1/cyclinB (Homo sapiens, UniProt P06493); assay: Kinase profile assay (Millipore); assay type: biochemical; details: read-out: kinase activity compared with the control
T2 construct: purchased Millipore
Experimental: as §1

[5] = target: T3, CDK2/cyclinA (Homo sapiens, UniProt P24941); assay: Kinase profile assay (Millipore); assay type: biochemical; details: 5 μM
T3 construct: purchased Millipore
Experimental: as §1

[6] = target: T4, CDK3/cyclinE (Homo sapiens, UniProt Q00526); assay: Kinase profile assay (Millipore); assay type: biochemical; details: 5 μM
T4 construct: purchased Millipore
Experimental: as §1

[7] = target: T5, CSK (Homo sapiens, UniProt P41240); assay: Kinase profile assay (Millipore); assay type: biochemical; details: 5 μM
T5 construct: purchased Millipore
Experimental: as §1

[8] = target: T6, DYRK2 (Homo sapiens, UniProt Q92630); assay: Kinase profile assay (Millipore); assay type: biochemical; details: read-out: kinase activity compared with the control
T6 construct: purchased Millipore
Experimental: as §1

[9] = target: T7, EGFR (Homo sapiens, UniProt P00533); assay: Kinase profile assay (Millipore); assay type: biochemical; details: 5 μM
T7 construct: purchased Millipore
Experimental: as §1

[10] = target: T8, EGFR (T790M, L858R) (Homo sapiens, UniProt P00533, L858R/T790M); assay: Kinase profile assay (Millipore); assay type: biochemical; details: 5 μM
T8 construct: purchased Millipore
Experimental: as §1

[11] = target: T9, FGFR1 (Homo sapiens, UniProt P11362); assay: Kinase profile assay (Millipore); assay type: biochemical; details: read-out: kinase activity compared with the control
T9 construct: purchased Millipore
Experimental: as §1

[12] = target: T10, Flt3 (Homo sapiens, UniProt P36888); assay: Kinase profile assay (Millipore); assay type: biochemical; details: read-out: kinase activity compared with the control
T10 construct: purchased Millipore
Experimental: as §1

[13] = target: T11, Fyn (Homo sapiens, UniProt P06241); assay: Kinase profile assay (Millipore); assay type: biochemical; details: read-out: kinase activity compared with the control
T11 construct: purchased Millipore
Experimental: as §1

[14] = target: T12, IKK alpha (Homo sapiens, UniProt O15111); assay: Kinase profile assay (Millipore); assay type: biochemical; details: read-out: kinase activity compared with the control
T12 construct: purchased Millipore
Experimental: as §1

[15] = target: T13, JNK1 alpha1 (Homo sapiens, UniProt P45983); assay: Kinase profile assay (Millipore); assay type: biochemical; details: 5 μM
T13 construct: purchased Millipore
Experimental: as §1

[16] = target: T14, JNK2 alpha2 (Homo sapiens, UniProt P45984); assay: Kinase profile assay (Millipore); assay type: biochemical; details: 5 μM
T14 construct: purchased Millipore
Experimental: as §1

[17] = target: T15, KDR (Homo sapiens, UniProt P35968); assay: Kinase profile assay (Millipore); assay type: biochemical; details: read-out: kinase activity compared with the control
T15 construct: purchased Millipore
Experimental: as §1

[18] = target: T16, MAPK1 (Homo sapiens, UniProt P27361); assay: Kinase profile assay (Millipore); assay type: biochemical; details: read-out: kinase activity compared with the control
T16 construct: purchased Millipore
Experimental: as §1

[19] = target: T17, MAPK2 (Homo sapiens, UniProt P28482); assay: Kinase profile assay (Millipore); assay type: biochemical; details: read-out: kinase activity compared with the control
T17 construct: purchased Millipore
Experimental: as §1

[20] = target: T18, MEK1 (Homo sapiens, UniProt Q02750); assay: Kinase profile assay (Millipore); assay type: biochemical; details: read-out: kinase activity compared with the control
T18 construct: purchased Millipore
Experimental: as §1

[21] = target: T19, MKK4 (Mus musculus, UniProt P47809); assay: Kinase profile assay (Millipore); assay type: biochemical; details: read-out: kinase activity compared with the control
T19 construct: purchased Millipore
Experimental: as §1

[22] = target: T20, MKK7 beta (Homo sapiens, UniProt O14733); assay: Kinase profile assay (Millipore); assay type: biochemical; details: 5 μM
T20 construct: purchased Millipore
Experimental: as §1

[23] = target: T21, MSK2 (Homo sapiens, UniProt O75676); assay: Kinase profile assay (Millipore); assay type: biochemical; details: read-out: kinase activity compared with the control
T21 construct: purchased Millipore
Experimental: as §1

[24] = target: T22, Met (Homo sapiens, UniProt P08581); assay: Kinase profile assay (Millipore); assay type: biochemical; details: 5 μM
T22 construct: purchased Millipore
Experimental: as §1

[25] = target: PI3-K beta (Homo sapiens, UniProt P42338); assay: Kinase profile assay (Millipore); assay type: biochemical; details: read-out: kinase activity compared with the control
Experimental: as §1

[26] = target: PI3-K gamma (Homo sapiens, UniProt P48736); assay: Kinase profile assay (Millipore); assay type: biochemical; details: read-out: kinase activity compared with the control
Experimental: as §1

[27] = target: T23, PKB alpha (Akt1) (Homo sapiens, UniProt P31749); assay: Kinase profile assay (Millipore); assay type: biochemical; details: read-out: kinase activity compared with the control
T23 construct: purchased Millipore
Experimental: as §1

[28] = target: T24, PKB beta (Akt2) (Homo sapiens, UniProt P31751); assay: Kinase profile assay (Millipore); assay type: biochemical
T24 construct: purchased Millipore
Experimental: as §1

[29] = target: T25, Pim-1 (Homo sapiens, UniProt P11309); assay: Kinase profile assay (Millipore); assay type: biochemical; details: read-out: kinase activity compared with the control
T25 construct: purchased Millipore
Experimental: as §1

[30] = target: T26, RSK2 (Homo sapiens, UniProt P51812); assay: Kinase profile assay (Millipore); assay type: biochemical; details: read-out: kinase activity compared with the control
T26 construct: purchased Millipore
Experimental: as §1

[31] = target: T27, c-Kit (Homo sapiens, UniProt P10721); assay: Kinase profile assay (Millipore); assay type: biochemical; details: read-out: kinase activity compared with the control
T27 construct: purchased Millipore
Experimental: as §1

[32] = target: T28, c-RAF (Homo sapiens, UniProt P04049); assay: Kinase profile assay (Millipore); assay type: biochemical; details: read-out: kinase activity compared with the control
T28 construct: purchased Millipore
Experimental: as §1

[33] = target: T29, c-Src (Homo sapiens, UniProt P12931); assay: Kinase profile assay (Millipore); assay type: biochemical; details: read-out: kinase activity compared with the control
T29 construct: purchased Millipore
Experimental: as §1

[34] = target: T30, mTOR (Homo sapiens, UniProt P42345); assay: Kinase profile assay (Millipore); assay type: biochemical; details: read-out: kinase activity compared with the control
T30 construct: purchased Millipore
Experimental: as §1

T24 sequence (P31751 whole entry, species assumed): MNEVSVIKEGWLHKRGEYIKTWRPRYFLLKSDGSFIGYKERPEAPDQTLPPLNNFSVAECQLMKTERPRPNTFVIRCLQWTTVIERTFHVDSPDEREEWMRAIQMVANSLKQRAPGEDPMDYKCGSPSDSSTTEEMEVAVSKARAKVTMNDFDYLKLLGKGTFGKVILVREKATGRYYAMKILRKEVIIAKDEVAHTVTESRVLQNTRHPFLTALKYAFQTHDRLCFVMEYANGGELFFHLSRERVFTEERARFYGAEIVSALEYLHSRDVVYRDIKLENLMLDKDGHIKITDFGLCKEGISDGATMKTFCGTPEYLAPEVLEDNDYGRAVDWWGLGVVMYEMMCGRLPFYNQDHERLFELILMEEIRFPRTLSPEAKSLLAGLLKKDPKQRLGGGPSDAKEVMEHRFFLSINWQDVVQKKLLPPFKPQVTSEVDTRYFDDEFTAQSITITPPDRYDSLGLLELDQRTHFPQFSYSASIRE
T2 sequence (P06493 whole entry, species assumed): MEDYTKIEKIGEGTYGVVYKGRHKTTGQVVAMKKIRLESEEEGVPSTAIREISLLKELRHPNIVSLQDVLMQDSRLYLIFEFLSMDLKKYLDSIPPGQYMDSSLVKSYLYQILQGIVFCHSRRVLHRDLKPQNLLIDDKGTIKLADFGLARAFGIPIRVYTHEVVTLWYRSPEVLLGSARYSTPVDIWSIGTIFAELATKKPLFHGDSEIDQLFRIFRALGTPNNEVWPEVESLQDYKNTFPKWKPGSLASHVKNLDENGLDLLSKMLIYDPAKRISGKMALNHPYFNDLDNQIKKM
T2 sequence (P14635 whole entry partner, species assumed): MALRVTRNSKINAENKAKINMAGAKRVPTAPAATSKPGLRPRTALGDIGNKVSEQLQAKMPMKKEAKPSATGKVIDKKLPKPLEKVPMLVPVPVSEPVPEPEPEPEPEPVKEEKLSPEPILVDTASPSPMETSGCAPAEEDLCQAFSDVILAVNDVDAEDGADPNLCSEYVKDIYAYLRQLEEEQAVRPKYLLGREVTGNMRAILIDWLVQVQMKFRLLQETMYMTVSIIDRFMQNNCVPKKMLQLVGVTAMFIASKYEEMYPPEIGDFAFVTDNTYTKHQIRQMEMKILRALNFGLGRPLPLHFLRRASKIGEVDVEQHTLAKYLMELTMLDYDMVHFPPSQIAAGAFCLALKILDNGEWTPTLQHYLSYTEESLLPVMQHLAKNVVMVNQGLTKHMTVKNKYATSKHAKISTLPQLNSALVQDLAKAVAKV
T16 sequence (P27361 whole entry): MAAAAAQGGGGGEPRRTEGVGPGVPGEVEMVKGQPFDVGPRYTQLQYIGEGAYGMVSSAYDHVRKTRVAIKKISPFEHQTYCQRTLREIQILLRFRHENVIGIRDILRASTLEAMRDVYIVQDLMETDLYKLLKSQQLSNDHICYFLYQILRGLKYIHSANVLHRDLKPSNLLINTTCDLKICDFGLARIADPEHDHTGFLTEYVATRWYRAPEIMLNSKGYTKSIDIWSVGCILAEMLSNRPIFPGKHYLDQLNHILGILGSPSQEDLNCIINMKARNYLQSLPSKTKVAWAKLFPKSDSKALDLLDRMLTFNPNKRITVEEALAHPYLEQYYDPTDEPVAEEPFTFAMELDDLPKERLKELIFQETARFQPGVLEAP
T10 sequence (P36888 27-993, species assumed): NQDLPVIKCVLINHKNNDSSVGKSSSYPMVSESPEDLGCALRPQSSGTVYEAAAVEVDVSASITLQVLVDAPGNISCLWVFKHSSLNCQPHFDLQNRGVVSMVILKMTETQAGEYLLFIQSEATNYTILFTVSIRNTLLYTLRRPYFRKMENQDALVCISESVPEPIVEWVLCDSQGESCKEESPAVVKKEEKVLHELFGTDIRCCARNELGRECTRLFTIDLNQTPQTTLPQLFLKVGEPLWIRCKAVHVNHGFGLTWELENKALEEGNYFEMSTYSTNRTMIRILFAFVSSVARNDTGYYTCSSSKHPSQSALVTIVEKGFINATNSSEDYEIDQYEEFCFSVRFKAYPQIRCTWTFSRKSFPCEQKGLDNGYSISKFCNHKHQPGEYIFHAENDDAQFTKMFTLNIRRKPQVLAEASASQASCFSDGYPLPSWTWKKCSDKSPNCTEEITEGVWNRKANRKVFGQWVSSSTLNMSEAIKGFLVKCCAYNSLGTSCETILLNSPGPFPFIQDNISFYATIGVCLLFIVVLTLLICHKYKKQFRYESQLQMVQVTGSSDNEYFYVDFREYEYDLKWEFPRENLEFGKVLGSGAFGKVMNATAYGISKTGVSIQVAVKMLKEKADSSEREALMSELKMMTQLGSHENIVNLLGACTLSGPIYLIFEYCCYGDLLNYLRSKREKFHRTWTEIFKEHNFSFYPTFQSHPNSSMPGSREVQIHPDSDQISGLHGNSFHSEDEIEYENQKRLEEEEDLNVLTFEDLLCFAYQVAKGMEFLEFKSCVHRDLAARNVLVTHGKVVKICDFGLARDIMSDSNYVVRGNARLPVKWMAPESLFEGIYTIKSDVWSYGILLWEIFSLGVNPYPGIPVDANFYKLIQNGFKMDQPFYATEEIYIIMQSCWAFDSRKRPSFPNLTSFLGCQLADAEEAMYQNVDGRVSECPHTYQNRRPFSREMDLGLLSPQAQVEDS
T21 sequence (O75676 whole entry, species assumed): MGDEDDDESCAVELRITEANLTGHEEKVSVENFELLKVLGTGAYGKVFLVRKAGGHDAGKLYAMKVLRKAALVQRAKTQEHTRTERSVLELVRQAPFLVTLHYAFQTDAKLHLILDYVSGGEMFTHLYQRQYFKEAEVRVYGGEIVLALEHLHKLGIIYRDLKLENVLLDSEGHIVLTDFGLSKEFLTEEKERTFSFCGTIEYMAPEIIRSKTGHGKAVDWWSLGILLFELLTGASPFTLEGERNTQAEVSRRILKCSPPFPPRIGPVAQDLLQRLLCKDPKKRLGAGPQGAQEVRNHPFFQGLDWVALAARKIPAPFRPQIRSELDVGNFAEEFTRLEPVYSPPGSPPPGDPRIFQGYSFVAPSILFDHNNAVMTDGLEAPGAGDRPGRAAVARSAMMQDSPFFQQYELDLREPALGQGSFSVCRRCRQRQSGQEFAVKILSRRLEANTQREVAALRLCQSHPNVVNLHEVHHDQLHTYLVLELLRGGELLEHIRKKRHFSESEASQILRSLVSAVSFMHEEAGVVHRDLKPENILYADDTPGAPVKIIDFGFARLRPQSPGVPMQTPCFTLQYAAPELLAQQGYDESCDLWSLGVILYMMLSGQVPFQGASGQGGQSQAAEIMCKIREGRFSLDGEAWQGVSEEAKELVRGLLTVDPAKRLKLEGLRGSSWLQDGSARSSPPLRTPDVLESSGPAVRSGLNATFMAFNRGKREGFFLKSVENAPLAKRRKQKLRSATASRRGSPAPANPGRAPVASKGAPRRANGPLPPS
T7 sequence (P00533 25-1210, species assumed): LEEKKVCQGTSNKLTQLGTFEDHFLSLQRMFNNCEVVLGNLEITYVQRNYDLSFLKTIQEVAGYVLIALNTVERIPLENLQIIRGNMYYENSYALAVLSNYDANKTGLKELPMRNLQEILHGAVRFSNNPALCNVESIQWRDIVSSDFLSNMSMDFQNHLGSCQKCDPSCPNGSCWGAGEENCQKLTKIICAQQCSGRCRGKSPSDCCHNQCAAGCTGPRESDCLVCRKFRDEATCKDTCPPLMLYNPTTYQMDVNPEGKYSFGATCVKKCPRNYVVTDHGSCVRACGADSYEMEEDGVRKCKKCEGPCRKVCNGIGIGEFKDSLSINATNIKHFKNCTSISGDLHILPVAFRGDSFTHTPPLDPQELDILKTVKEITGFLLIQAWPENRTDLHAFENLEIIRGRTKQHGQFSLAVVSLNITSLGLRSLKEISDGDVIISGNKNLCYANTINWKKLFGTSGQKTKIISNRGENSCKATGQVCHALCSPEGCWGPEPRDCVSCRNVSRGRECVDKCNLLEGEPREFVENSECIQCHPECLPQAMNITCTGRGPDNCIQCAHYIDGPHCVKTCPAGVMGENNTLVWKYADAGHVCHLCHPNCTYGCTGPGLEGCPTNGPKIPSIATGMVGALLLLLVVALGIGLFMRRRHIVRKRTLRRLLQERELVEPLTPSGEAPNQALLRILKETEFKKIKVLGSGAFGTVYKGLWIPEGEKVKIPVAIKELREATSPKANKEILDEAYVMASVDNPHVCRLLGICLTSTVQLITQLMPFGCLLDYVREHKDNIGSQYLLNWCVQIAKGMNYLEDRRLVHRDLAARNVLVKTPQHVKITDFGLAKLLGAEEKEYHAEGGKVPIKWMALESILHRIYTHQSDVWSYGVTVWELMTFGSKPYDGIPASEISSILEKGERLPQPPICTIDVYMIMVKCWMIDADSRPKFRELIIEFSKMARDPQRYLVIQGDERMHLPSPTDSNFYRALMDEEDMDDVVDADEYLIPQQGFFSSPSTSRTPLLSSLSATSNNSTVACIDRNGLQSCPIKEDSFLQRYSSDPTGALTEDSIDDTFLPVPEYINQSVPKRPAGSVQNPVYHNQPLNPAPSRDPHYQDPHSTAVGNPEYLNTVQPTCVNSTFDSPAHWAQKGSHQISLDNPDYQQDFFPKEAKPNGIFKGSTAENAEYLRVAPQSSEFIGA
T18 sequence (Q02750 whole entry, species assumed): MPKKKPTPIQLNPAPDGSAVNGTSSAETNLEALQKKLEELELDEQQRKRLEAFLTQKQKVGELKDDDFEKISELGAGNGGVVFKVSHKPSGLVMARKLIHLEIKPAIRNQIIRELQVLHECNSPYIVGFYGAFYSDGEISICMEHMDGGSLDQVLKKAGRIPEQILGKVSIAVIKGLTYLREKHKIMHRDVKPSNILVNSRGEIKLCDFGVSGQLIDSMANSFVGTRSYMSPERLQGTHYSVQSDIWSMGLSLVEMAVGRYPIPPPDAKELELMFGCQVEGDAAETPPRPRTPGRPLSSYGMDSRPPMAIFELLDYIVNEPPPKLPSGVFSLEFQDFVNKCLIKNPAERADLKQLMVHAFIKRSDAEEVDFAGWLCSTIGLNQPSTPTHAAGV

O=C(/C=C/c1ccc2c(c1)OCO2)/C=C1/C(=O)Nc2ccccc21 [Compound 1]
anchorage-independent growth of HCT116 cells (colony formation) [1]: best efficiency
cytotoxic effects on A549 lung cancer cells ([2]; 1 μM or less): no obvious cytotoxic effects
toxicity toward A549 cancer cells ([2]; 5 μM, 48 hours): weak toxicity
toxicity on A549 lung cancer cells ([2]; concentrations greater than 10 μM): substantial toxicity
remaining activity at 5 µM [3]: 96%
remaining activity at 5 µM [4]: 86%
kinase activity compared with the control [5]: 98
kinase activity compared with the control [6]: 99
kinase activity compared with the control [7]: 110
remaining activity at 5 µM [8]: 97%
kinase activity compared with the control [9]: 106
kinase activity compared with the control [10]: 101
remaining activity at 5 µM [11]: 86%
remaining activity at 5 µM [12]: 92%
remaining activity at 5 µM [13]: 99%
remaining activity at 5 µM [14]: 83%
kinase activity compared with the control [15]: 104
kinase activity compared with the control [16]: 89
remaining activity at 5 µM [17]: 93%
remaining activity at 5 µM [18]: 100%
remaining activity at 5 µM [19]: 102%
remaining activity at 5 µM [20]: 104%
remaining activity at 5 µM [21]: 130%
kinase activity compared with the control [22]: 94
remaining activity at 5 µM [23]: 79%
kinase activity compared with the control [24]: 89
remaining activity at 5 µM [25]: 103%
remaining activity at 5 µM [26]: 100%
remaining activity at 5 µM [27]: 68%
Akt2 activity suppressed compared with the control (kinase profile) ([28]; 5 μM): more than 50%
remaining activity at 5 µM ([28]; PKB beta (Akt2), read-out: kinase activity compared with the control): 47%
remaining activity at 5 µM [29]: 96%
remaining activity at 5 µM [30]: 94%
remaining activity at 5 µM [31]: 123%
remaining activity at 5 µM [32]: 87%
remaining activity at 5 µM [33]: 99%
remaining activity at 5 µM [34]: 136%
